Values quoted from earlier work in patent US20230218541A1, “Enhanced Moisturizing Lotion Compositions” (priority 2019, published 2023).

Tested on: coronaviruses, including SARS-CoV-2, SARS-CoV, MERS-CoV, and HCoVs
Conditions: 62% to 71% ethanol, 0.5% hydrogen peroxide or 0.1% sodium hypochlorite

Compound | Time to efficient inactivation of coronaviruses on contact with surface disinfectant
CCO [ethanol] | one
OO [hydrogen peroxide] | one
OCl [sodium hypochlorite] | one
